From patent US9512161B2, “Hydroxyl, keto, and glucuronide derivatives of 3-(4-(7H-pyrrolo[2,3-D]pyrimidin-4-yl)-1H-pyrazol-1-yl)-3-cyclopentylpropanenitrile” (Incyte Corporation, priority 2009, dated 2016)

Assay: Metabolite profiling of plasma and urine from human subjects after administration of Compound I (HPLC-MS)
Assay type: in vivo
Settings: human subjects dosed with Compound I; LC-MS detection
Method: Metabolites 1-39 were isolated from human, rat or dog urine, plasma, or feces after administration of Compound I in connection with pharmacokinetic and toxicokinetic studies. The identity of the metabolites were determined after isolation of the metabolite using HPLC methods. Tandem MS/MS analysis and higher order MS^n experiments were conducted as required to elucidate structural information.
Plasma samples from all subjects were pooled by subject and/or by time point. The pooled plasma samples were prepared for HPLC-Radiometric analysis as follows: Aliquots of the pooled plasma samples were initially extracted with approximately two equivalent (W/V) volumes of 1% formic acid in HPLC-grade acetonitrile, followed by vigorous vortexing, and centrifugation to remove denatured plasma proteins. The supernatant was reserved and passed through a pre-conditioned Waters C-18 Solid phase extraction cartridge, and the filtrate retained. The SPE cartridge was retained. The remaining plasma pellet was then extracted three times with 1% formic acid in HPLC-grade acetonitrile/water (90/10), with centrifugation after each extraction. All supernatants were reserved. Each formic acid/acetonitrile/water extraction supernatant was used to elute the SPE cartridge. The SPE cartridge was then rinsed with 1% formic acid in methanol. All eluants were retained, combined, and evaporated under a stream of nitrogen at 30° C. The remainder of this extraction was reconstituted in approximately 0.6 ml of 0.1% formic acid in water, vortexed and centrifuged to remove particulate matter. The supernatant was then analyzed by HPLC-Flow Radiometry and HPLC-MS.
Aliquots of approximately equal amounts of urine from each of the subjects were pooled to represent appropriate time intervals post-dose. Prior to HPLC-Radiometric analysis, each pooled urine sample was centrifuged at 4,000 rpm for 10 min to remove particulate matter, then analyzed directly.
All samples were analyzed by either HPLC-Flow radiometry or HPLC-MS using analytical systems that were as identical as practicable. The HPLC-Flow Radiometry system consisted of an Agilent HP 1100 series Quaternary pump, Autosampler, and UV detector interfaced with a Raytest Ramona-90 flow scintillation detector with a 500 μL liquid scintillation cell. […] Mobile phase “A” consisted of 0.1% formic acid in HPLC-grade water, with mobile phase “B” consisting of HPLC-grade methanol/acetonitrile (1:1). Elution of analytes was achieved through use of a linear increasing gradient of mobile phase “B”. Two different gradient elution methods were employed at various times as needed. Chromatographic conditions for these two methods are outlined below in Tables 3 and 4. […]

| SMILES | Matrix in which the metabolite was observed/found |
| --- | --- |
| N#CCC(C1CCCC1)n1cc(-c2ncnc3c2C(O)C(O)N3)cn1 (stereo not shown) [Compound 40, 3-cyclopentyl-3-(4-(5,6-dihydroxy-6,7-dihydro-5H-pyrrolo[2,3-d]pyrimidin-4-yl)-1H-pyrazol-1-yl)propanenitrile] | plasma and urine |
| N#CCC(C1CCCC1)n1cc(-c2[nH]c(=O)nc3c2CC(=O)N3)cn1 (stereo not shown) [Compound 31, 3-cyclopentyl-3-(4-(2,6-dioxo-3,5,6,7-tetrahydro-2H-pyrrolo[2,3-d]pyrimidin-4-yl)-1H-pyrazol-1-yl)propanenitrile] | urine |
| N#CCC(C1CCCC1)n1cc(-c2nc(O)nc3c2C(=O)CN3)cn1 (stereo not shown) [Compound 32, 3-cyclopentyl-3-(4-(2-hydroxy-5-oxo-6,7-dihydro-5H-pyrrolo[2,3-d]pyrimidin-4-yl)-1H-pyrazol-1-yl)propanenitrile] | plasma and urine |
| N#CCC(C1CCCC1)n1cc(-c2ncnc3c2ccn3C2OC(C(=O)O)C(O)C(O)C2O)cn1 (stereo not shown) [Compound 41, 6-(4-(1-(2-cyano-1-cyclopentylethyl)-1H-pyrazol-4-yl)-7H-pyrrolo[2,3-d]pyrimidin-7-yl)-3,4,5-trihydroxytetrahydro-2H-pyran-2-carboxylic acid] | urine |
